Source: US20150064221A1, “COMPOUNDS HAVING IMMUNOMUDULATOR ACTIVITY” (priority 2012, published 2015)

What was measured:
[1] = system: oxazolone-induced hypersensitivity; experiment: Oxazolone-induced dermatitis; type: in vivo, mice
p38 and 1-kBα = experiment: LPS-induced signalling pathway phosphorylation; type: cell-based
Method: (A) Thioglycollate-elicited macrophages (1×10^6/ml) were stimulated with either LPS (5 μg/ml), zymosan (ZYM, 50 μg/ml), MDP (25 μg/ml), or Poly(I:C) (50 μg/ml) in the presence or absence of VGX-1027 (10 μg/ml). TNF-α was measured 48 hours post treatment. (B) Relative phosphorylations of 1-κBα and p38 were measured at the indicated time points following stimulation with LPS (5 μg/ml). The y-axis is presented as fold change in comparison to the values obtained from LPS-treated cultures alone. * p<0.05.
(Jiang et al., J. Biol. Chem., (278) 16713-16719 (2003). In addition, it was observed that VGX-1027 inhibited LPS-induced phosphorylation of p38 and 1-kBα, indicating VGX-1027 inhibits a protein upstream of both the p38 and NF-κB, signaling pathways (FIG. 4b).

Purified CD4 T cells = experiment: Th17 T cell development from purified CD4 T cells; type: cell-based; details: 10 mM
Method: Purified CD4 T cells (CD3^+ CD4^+ CD45RA^+ CD25^− HLA−DR^−) were incubated with 10 μg/ml of IL-2, 10 ng/mL of IL-1β, 10 ng/ml of IL-23, 1 ug/ml of anti-IL-4, 1 ug/mL of anti-IFNγ and anti-CD3/CD28 activation beads at a ratio of 1 bead per cell plus TGF-β (1 ng/mL). On day 6, the cells were incubated in the presence of 50 ng/ml of PMA and 500 ng/ml of ionomycin for 5 hours. The cells were analyzed for intracellular staining of IL-17A and IFNγ. (A) FACS analysis of CD4+ and IL-17+ cells with the percentage shown in the upper right quadrant. (B) Mean Fluorescent Intensity (MFI) of IL-17+ T cells. (C) Concentration of IL-17 in the media. VGX-1027 concentration was 10 mM.
Although inhibition of Th17-promoting cytokine production from DCs is likely to contribute to the decrease of Th17 T cell development, the potential limitation with this mechanism is that other cells may be compensating for the production of Th17-promoting cytokines. Therefore, the direct effect of VGX-1027 was tested on the differentiation of naïve CD4 T cells into Th17 T cells. In vitro generation of Th17 T cells requires TGF-β, IL-1β, IL-6, and either IL-21 or IL-23. Th17 T cells was assessed with purified CD4 T cells (CD3+ CD4+ CD45RA+ CD25− HLA−DR−) with or without VGX-1027.

[2] = elicitation phase: one hour after second oxazolone exposure
[3] = treated during or before the sensitization phase

O=C(O)CC1CC(c2ccccc2)=NO1 (stereo not drawn) [VGX-1027, 3-phenyl-4,5-dihydro-5-isoxazoleacetic acid]
ear thickness [1, 2]: significant decrease
ear weight [1, 2]: not in weight
ear thickness [1, 3]: significantly suppressed
ear weight [1, 3]: significantly suppressed
ERK pathway (p38 and 1-kBα): up-regulation
phosphorylation of 1-kBα (p38 and 1-kBα; LPS-induced): inhibited
phosphorylation of p38 (p38 and 1-kBα; LPS-induced): inhibited
IL-17 expressed in a Th17 T cell (MFI) (Purified CD4 T cells): decrease
IL-17 in the culture media (Purified CD4 T cells): decrease
